Test results: patent publication US8354414B2, “Substituted bicyclic pyrimidines” (Cephalon, Inc, priority 2006, dated 2013)
Where a name gives a salt, the structure may show the parent alone. Read-outs that look alike come from different tables or passages of the source.

How the values were obtained:
CDK5/GST-p25 = target: T1, CDK5/GST-p25 (Homo sapiens, UniProt Q00535); assay: Inhibition of CDK5/GST-p25 kinase activity (ELISA with time-resolved fluorescence readout); format: biochemical
T1 construct: The final construct, encoding for full-length human CDK5; made in house; host or cells: Sf21 insect cells (baculovirus co-infection)
T1 sequence (Q00535 whole entry): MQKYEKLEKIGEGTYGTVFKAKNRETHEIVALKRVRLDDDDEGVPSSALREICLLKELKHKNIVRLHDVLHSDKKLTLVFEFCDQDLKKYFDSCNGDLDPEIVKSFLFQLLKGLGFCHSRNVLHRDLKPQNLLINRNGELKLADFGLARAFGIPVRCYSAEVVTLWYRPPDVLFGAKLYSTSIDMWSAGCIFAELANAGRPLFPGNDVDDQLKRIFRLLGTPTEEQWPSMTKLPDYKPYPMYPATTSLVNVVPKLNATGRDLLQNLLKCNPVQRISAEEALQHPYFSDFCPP
T1 sequence (Q15078 108-307 partner limits assumed): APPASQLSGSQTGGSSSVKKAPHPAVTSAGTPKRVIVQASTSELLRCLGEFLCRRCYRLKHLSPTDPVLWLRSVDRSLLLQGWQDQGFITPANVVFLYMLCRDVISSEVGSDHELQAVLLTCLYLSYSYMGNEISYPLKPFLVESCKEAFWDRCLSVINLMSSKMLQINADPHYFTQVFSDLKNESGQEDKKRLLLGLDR
Procedure, shortened: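 Sf21-coexpressed full-length human CDK5 with GST-p25 (p35 aa 108-307), glutathione-purified, at 2 ng/ml was reacted for 20 min at 37 °C on plate-coated GST-Rb(773-928). Buffer was 20 mM HEPES pH 7.2, 10 µM ATP, 10 mM MgCl2 and 2.5% DMSO. Phospho-Rb Ser-780 was detected by Eu-labelled antibody TRF, and IC50 curves were fitted.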

His6-GSK-3β = target: T2, His6-GSK-3β (Homo sapiens, UniProt P49841); assay: Inhibition of His6-GSK-3β kinase activity (ELISA-based format, time-resolved fluorescence readout); format: biochemical; details: for IC50: read-out: GSK3β IC50
T2 construct: made in house; host or cells: Sf21 insect cells (baculovirus)
T2 sequence (P49841 2-419): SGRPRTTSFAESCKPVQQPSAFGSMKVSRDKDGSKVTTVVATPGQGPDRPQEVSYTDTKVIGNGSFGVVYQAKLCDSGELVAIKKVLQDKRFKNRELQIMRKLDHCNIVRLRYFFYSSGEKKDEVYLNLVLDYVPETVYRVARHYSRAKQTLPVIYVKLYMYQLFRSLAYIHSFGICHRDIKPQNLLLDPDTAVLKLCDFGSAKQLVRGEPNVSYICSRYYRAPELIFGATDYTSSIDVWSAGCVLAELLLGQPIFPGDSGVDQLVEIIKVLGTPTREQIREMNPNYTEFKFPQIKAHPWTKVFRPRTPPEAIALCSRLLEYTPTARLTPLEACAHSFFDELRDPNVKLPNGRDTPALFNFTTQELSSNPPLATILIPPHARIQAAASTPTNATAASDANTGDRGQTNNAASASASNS
Procedure, shortened: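 N-terminal His6-tagged full-length human GSK-3β (aa 2-419) expressed in Sf21 cells, 200 ng/ml, phosphorylating plate-coated GST-Rb with 20 μM ATP in pH 7.2 HEPES buffer, 30 min at 37° C. Phospho-Rb (Ser-780) detected by antibody plus Eu-labelled secondary, time-resolved fluorescence; IC50 from curves.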

Compound	IC50 (CDK5/GST-p25; class symbols) [nM]	IC50 (His6-GSK-3β; class symbols) [nM]	further results
CNCCCNc1nc(C2C(=O)Nc3ccc(Br)cc32)c2cn(C)nc2n1 (centres unmarked) (as salt: hydrochloride) [Example 306, 5-Bromo-3-[2-methyl-6-(3-methylamino-propylamino)-2H-pyrazolo [3,4-d]pyrimidin-4-yl]-1,3-dihydro-indol-2-one]	–	–	melting point: 271 to 273 °C
CNCCCNc1nc(C2C(=O)Nc3ccc(Br)cc32)c2cn(CCOC)nc2n1 (centres unmarked) (as salt: hydrochloride) [Example 226, 5-Bromo-3-[2-(2-methoxy-ethyl)-6-(3-methylamino-propylamino)-2H-pyrazolo[3,4-d]pyrimdin-4-yl]-1,3-dihydro-indol-2-one]	–	–	melting point: 232 to 236 °C
COCCn1cc2c(C3C(=O)Nc4ccc(Br)cc43)nc(NCCC3CCNCC3)nc2n1 (centres unmarked) (as salt: hydrochloride) [Example 227, 5-Bromo-3-[2-(2-methoxy-ethyl)-6-(2-piperidin-4-yl-ethylamino)-2H-pyrazolo[3,4-d]pyrimidin-4-yl]-1,3-dihydro-indol-2-one]	–	–	melting point: 248 to 251 °C
CCCn1cc2c(C3C(=O)Nc4ccc(C#N)cc43)nc(Cl)nc2n1 (centres unmarked) [Example 183, 3-(6-Chloro-2-propyl-2H-pyrazolo [3,4-d]pyrimidin-4-yl)-2-oxo-2,3-dihydro-1H-indole-5-carbonitrile]	–	–	melting point: > 300 °C
CN(C)CCNc1nc(C2C(=O)Nc3ccc(Br)cc32)c2cn(C3CCCC3)nc2n1 (centres unmarked) (as salt: TFA) [Example 370, 5-Bromo-3-[2-cyclopentyl-6-(2-dimethylamino-ethylamino)-2H-pyrazolo [3,4-d]pyrimidin-4-yl]-1,3-dihydro-indol-2-one]	–	–	melting point: 190 to 192 °C
CCCn1cc2c(C3(F)C(=O)Nc4ccc(Br)cc43)ncnc2n1 (centres unmarked) [Example 383, 5-Bromo-3-fluoro-3-(2-propyl-2H-pyrazolo[3,4-d]pyrimidin-4-yl)-1,3-dihydroindol-2-one]	–	–	melting point: 184 to 186 °C
COC[C@H]1C[C@@H](n2cnc3c(C4C(=O)Nc5ccc(C#N)cc54)ncnc32)[C@H](O)[C@@H]1O (stereo partly drawn) [Example 29, 3-[9-((1R,2S,3R,4R)-2,3-Dihydroxy-4-methoxymethyl-cyclopentyl)-9H-purin-6-yl]-2-oxo-2,3-dihydro-1H-indole-5-carbonitrile]	–	–	melting point: 230 to 236 °C (dec.)
CN(C)CCNc1nc(C2C(=O)Nc3ccc(Br)cc32)c2cn(C)nc2n1 (centres unmarked) [Example 359, 5-Bromo-3-[6-(2-dimethylamino-ethylamino)-2-methyl-2H-pyrazolo[3,4-d]pyrimidin-4-yl]-1,3-dihydro-indol-2-one]	300 to 3000	300 to 3000	–
CNCCCNc1nc(C2C(=O)Nc3ccc(Br)cc32)c2cn(CCOC)nc2n1 (centres unmarked) [Example 226, 5-Bromo-3-[2-(2-methoxy-ethyl)-6-(3-methylamino-propylamino)-2H-pyrazolo[3,4-d]pyrimdin-4-yl]-1,3-dihydro-indol-2-one]	< 300	< 300	–
N#Cc1ccc2c(c1)C(c1nc(NCc3ccncc3)nc3c1CCC3)C(=O)N2 (centres unmarked) [Example 347, 2-Oxo-3-{2-[(pyridin-4-ylmethyl)-amino]-6,7-dihydro-5H-cyclopentapyrimidin-4-yl}-2,3-dihydro-1H-indole-5-carbonitrile]	300 to 3000	300 to 3000	–
O=C1Nc2ccc(F)cc2C1c1nc(NCc2ccccn2)nc2c1CCC2 (centres unmarked) [Example 322, 5-Fluoro-3-{2-[(pyridin-2-ylmethyl)-amino]-6,7-dihydro-5H-cyclopentapyrimidin-4-yl}-1,3-dihydro-indol-2-one]	–	> 10000	IC50 (CDK5/GST-p25; numeric bounds): > 3000 nM
Cn1cc2c(C3C(=O)Nc4ccc(Cl)cc43)ncnc2n1 (centres unmarked) [Example 83, 5-Chloro-3-(2-methyl-2H-pyrazolo[3,4-d]pyrimidin-4-yl)-1,3-dihydro-indol-2-one]	< 300	300 to 3000	–
CCCn1cc2c(C3C(=O)Nc4ccc(Br)cc43)nc(NC[C@@H](O)CO)nc2n1 (stereo partly drawn) [Example 368, 5-Bromo-3-[6-((R)-2,3-dihydroxy-propylamino)-2-propyl-2H-pyrazolo[3,4-d]pyrimidin-4-yl]-1,3-dihydro-indol-2-one]	< 300	< 300	–
N#Cc1ccc2c(c1)C(c1nc(NCCN3CCOCC3)nc3c1CCC3)C(=O)N2 (centres unmarked) [Example 341, 3-[2-(2-Morpholin-4-yl-ethylamino)-6,7-dihydro-5H-cyclopentapyrimidin-4-yl]-2-oxo-2,3-dihydro-1H-indole-5-carbonitrile]	300 to 3000	300 to 3000	–
CNCCCn1cc2c(C3C(=O)Nc4ccc(Br)cc43)ncnc2n1 (centres unmarked) [Example 90, 3-[2-(3-methylamino-propyl)-2H-pyrazolo[3,4-d]pyrimidin-4-yl]-5-bromo-1,3-dihydro-indol-2-one]	< 300	300 to 3000	–
N#Cc1ccc2c(c1)C(c1nc(NCc3ccccn3)nc3c1CCC3)C(=O)N2 (centres unmarked) [Example 349, 2-Oxo-3-{2-[(pyridin-2-ylmethyl)-amino]-6,7-dihydro-5H-cyclopentapyrimidin-4-yl}-2,3-dihydro-1H-indole-5-carbonitrile]	< 300	300 to 3000	–
N#Cc1ccc2c(c1)C(c1nc(Cl)nc3c1CCC3)C(=O)N2 (centres unmarked) [Example 317, 3-(2-Chloro-6,7-dihydro-5H-cyclopentapyrimidin-4-yl)-2-oxo-2,3-dihydro-1H-indole-5-carbonitrile]	> 10000	> 10000	–
CCCn1cc2c(C3C(=O)Nc4ccc(Br)cc43)nc(NC[C@H](O)CO)nc2n1 (stereo partly drawn) [Example 364, 5-Bromo-3-[6-((S)-2,3-dihydroxy-propylamino)-2-propyl-2H-pyrazolo [3,4-d]pyrimidin-4-yl]-1,3-dihydro-indol-2-one]	< 300	< 300	–
CCOCCNc1nc2c(c(C3C(=O)Nc4ccc(C#N)cc43)n1)CCC2 (centres unmarked) [Example 344, 3-[2-(2-Ethoxy-ethylamino)-6,7-dihydro-5H-cyclopentapyrimidin-4-yl]-2-oxo-2,3-dihydro-1H-indole-5-carbonitrile]	300 to 3000	–	GSK3β % @10 μM (His6-GSK-3β; @10 μM): 69% @10 μM
CN(C)CCCNc1nc2c(c(C3C(=O)Nc4ccc(Br)cc43)n1)CCC2 (centres unmarked) [Example 335, 5-Bromo-3-[2-(3-dimethylamino-propylamino)-6,7-dihydro-5H-cyclopentapyrimidin-4-yl]-1,3-dihydro-indol-2-one]	–	–	IC50 (CDK5/GST-p25; numeric bounds): > 3000 nM; IC50 (His6-GSK-3β; numeric bounds): > 3000 nM

More lines, main results first:

IC50 (CDK5/GST-p25; class symbols) [nM]	IC50 (His6-GSK-3β; class symbols) [nM]	Compound	further results
< 300	< 300	COCCNc1nc(C2C(=O)Nc3ccc(C#N)cc32)c2cn(C3CCCC3)nc2n1 (centres unmarked) [Example 174, 3-[2-Cyclopentyl-6-(2-methoxy-ethylamino)-2H-pyrazolo [3,4-d]pyrimidin-4-yl]-2-oxo-2,3-dihydro-1H-indole-5-carbonitrile]	–
> 10000	< 300	N#Cc1ccc2c(c1)C(c1nc(O)nc3nn(C4CCCC4)cc13)C(=O)N2 (centres unmarked) [Example 120, 3-(2-cyclopentyl-6-hydroxy-2H-pyrazolo [3,4-d]pyrimidin-4-yl)-2-oxo-2,3-dihydro-1H-indole-5-carbonitrile]	–
> 10000	< 300	N#Cc1ccc2c(c1)C(c1nc(Cl)nc3nn(C4CCCC4)cc13)C(=O)N2 (centres unmarked) [Example 113, 3-(6-Chloro-2-cyclopentyl-2H-pyrazolo[3,4-d]pyrimidin-4-yl)-2-oxo-2,3-dihydro-1H-indole-5-carbonitrile]	–
< 300	< 300	N#Cc1ccc2c(c1)C(c1nc(NCCN3CCOCC3)nc3nn(C4CCCC4)cc13)C(=O)N2 (centres unmarked) [Example 177, 3-[2-Cyclopentyl-6-(2-morpholin-4-yl-ethylamino)-2H-pyrazolo[3,4-d]pyrimidin-4-yl]-2-oxo-2,3-dihydro-1H-indole-5-carbonitrile]	–
< 300	< 300	CNc1nc(C2C(=O)Nc3ccc(C#N)cc32)c2cn(C3CCCC3)nc2n1 (centres unmarked) [Example 115, 3-(2-cyclopentyl-6-methylamino-2H-pyrazolo[3,4-d]pyrimidin-4-yl)-2-oxo-2,3-dihydro-1H-indole-5-carbonitrile]	–
> 10000	< 300	CN(C)CCN(C)c1nc(C2C(=O)Nc3ccc(Cl)cc32)c2cn(C3CCCC3)nc2n1 (centres unmarked) [Example 140, 5-Chloro-3-{2-cyclopentyl-6-[(2-dimethylamino-ethyl)-methyl-amino]-2H-pyrazolo[3,4-d]pyrimidin-4-yl}-1,3-dihydro-indol-2-one]	–
> 10000	< 300	N#Cc1ccc2c(c1)C(c1nc(N3CCCC3)nc3nn(C4CCCC4)cc13)C(=O)N2 (centres unmarked) [Example 132, 3-(2-cyclopentyl-6-pyrrolidin-1-yl-2H-pyrazolo [3,4-d]pyrimidin-4-yl)-2-oxo-2,3-dihydro-1H-indole-5-carbonitrile]	–
–	< 300	N#Cc1ccc2c(c1)C(c1nc(NCCN3CCCC3)nc3nn(C4CCCC4)cc13)C(=O)N2 (centres unmarked) [Example 136, 3-[2-cyclopentyl-6-(2-pyrrolidin-1-yl-ethylamino)-2H-pyrazolo[3,4-d]pyrimidin-4-yl]-2-oxo-2,3-dihydro-1H-indole-5-carbonitrile]	IC50 (CDK5/GST-p25; numeric bounds): > 3000 nM
–	300 to 3000	CCCn1cc2c(C3C(=O)Nc4ccc(Br)cc43)nc(N[C@H]3CCNC3)nc2n1 (some centres unmarked) [Example 362]	IC50 (CDK5/GST-p25; numeric bounds): > 3000 nM
< 300	< 300	N#Cc1ccc2c(c1)C(c1nc(NCCc3cccnc3)nc3nn(C4CCCC4)cc13)C(=O)N2 (centres unmarked) [Example 114, 3-(2-cyclopentyl-6-(2-pyridin-3-yl-ethylamino)-2H-pyrazolo[3,4-d]pyrimidin-4-yl)-2-oxo-2,3-dihydro-1H-indole-5-carbonitrile]	–
